From US6620821B2, “HMG-CoA reductase inhibitors and method” (Bristol-Myers Squibb Company, priority 2000, dated 2003)

melting point: 253 to 254 °C
SMILES: CC(C)c1nc2c(c(-c3ccc(F)cc3)c1CC[C@@H](O)C[C@@H](O)CC(=O)[O-])CCCc1ccccc1-2.[Na+]
